This is an account of results in article PMC11940147, “Copper Hexacyanoferrates Obtained via Flavocytochrome b2 Assistance: Characterization and Application” (Biosensors, 2025).

Assay [1] concerns T1, L-arginine oxidase (ArgO).
T1 construct: native, purified from the mushroom by the authors' method
Description: colorimetric H2O2 detection with gCuHCF and o-dianisidine, Lineweaver-Burke. The format is biochemical, Amanita phalloides. The following applies: enzyme in solution; coupled to gCuHCF peroxidase mimic. The source says:
colorimetric H2O2 detection with gCuHCF and o-dianisidine, Lineweaver-Burke on L-arginine oxidase (ArgO) | kinetic constants of ArgO in the ArgO/gCuHCF/o-DZ method with respect to Arg

Assay [2] deals with T2, flavocytochrome b2 (Fcb2) (Ogataea polymorpha, UniProt A0A9P8PNE1).
T2 construct: gene OGATHE_001663
T2 sequence (A0A9P8PNE1 55-553): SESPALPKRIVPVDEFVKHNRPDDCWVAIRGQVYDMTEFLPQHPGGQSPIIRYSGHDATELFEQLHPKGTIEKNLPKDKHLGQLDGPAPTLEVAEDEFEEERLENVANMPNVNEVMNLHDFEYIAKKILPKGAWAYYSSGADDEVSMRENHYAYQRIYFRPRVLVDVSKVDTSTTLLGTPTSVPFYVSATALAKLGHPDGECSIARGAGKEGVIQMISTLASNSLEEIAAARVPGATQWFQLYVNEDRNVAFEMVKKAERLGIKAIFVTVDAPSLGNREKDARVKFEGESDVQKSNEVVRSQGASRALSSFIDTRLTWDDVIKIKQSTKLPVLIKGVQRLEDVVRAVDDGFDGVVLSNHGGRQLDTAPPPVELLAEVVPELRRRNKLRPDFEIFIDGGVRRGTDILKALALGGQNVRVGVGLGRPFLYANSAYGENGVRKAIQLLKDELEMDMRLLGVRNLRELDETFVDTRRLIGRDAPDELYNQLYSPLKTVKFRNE
Description: cyclic voltammetry and chronoamperometry, Fcb2 in gCuHCF on graphite electrode. The format is biochemical.

Turning to `N=C(N)NCCC[C@H](N)C(=O)O` [L-arginine], the Km in assay [1] worked out at 300 µM.

Regarding `C[C@H](O)C(=O)O` [L-lactate], the “cyclic voltammetry and chronoamperometry, Fcb2 in gCuHCF on graphite electrode” value in assay [2] is recorded as “current output on lactate addition correlates with Fcb2 activity in the sensing layer”.
